Read-outs that look alike come from different tables or passages of the source.
Tests used:
[1] = target: T1, Pyruvate decarboxylase from Saccharomyces cerevisiae (Saccharomyces cerevisiae, UniProt P06169); test: Inactivation of pyruvate decarboxylase (PDC); type: biochemical
T1 construct: made in house; host or cells: E. coli
T1 sequence (P06169 2-563 limits assumed): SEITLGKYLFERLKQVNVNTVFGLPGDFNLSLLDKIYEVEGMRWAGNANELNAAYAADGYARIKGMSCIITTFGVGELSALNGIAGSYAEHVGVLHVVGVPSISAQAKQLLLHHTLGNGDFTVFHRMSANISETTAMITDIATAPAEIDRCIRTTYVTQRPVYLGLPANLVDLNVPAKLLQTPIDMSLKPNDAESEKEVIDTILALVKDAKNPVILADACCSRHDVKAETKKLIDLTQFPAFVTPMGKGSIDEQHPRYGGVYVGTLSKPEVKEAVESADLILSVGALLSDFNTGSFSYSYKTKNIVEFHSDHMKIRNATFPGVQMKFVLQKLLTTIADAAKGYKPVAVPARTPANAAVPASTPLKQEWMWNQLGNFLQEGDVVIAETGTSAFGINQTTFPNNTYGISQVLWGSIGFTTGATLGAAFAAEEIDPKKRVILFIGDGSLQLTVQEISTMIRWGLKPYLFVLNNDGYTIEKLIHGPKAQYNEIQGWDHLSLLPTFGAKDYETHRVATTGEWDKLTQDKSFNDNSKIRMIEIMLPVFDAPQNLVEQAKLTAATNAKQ
Procedure: Pyruvate decarboxylase from Saccharomyces cerevisiae was overexpressed in E. coli (Baburina et al., 1994), then purified according to Farrenkopf & Jordan (1992). It was assayed spectrophotometrically by coupling to alcohol dehydrogenase (Holzer et al., 1960).

[2] = target: T2, Pyruvate oxidase from Lactobacillus plantarum (Lactiplantibacillus plantarum, UniProt P37063); test: Inactivation of pyruvate oxidase (POX); type: biochemical; details: for kinact/KI: read-out: kc/Ki,c (converted)
T2 construct: purchased Boehringer Mannheim (a gift, not bought)
T2 sequence (P37063 1-603): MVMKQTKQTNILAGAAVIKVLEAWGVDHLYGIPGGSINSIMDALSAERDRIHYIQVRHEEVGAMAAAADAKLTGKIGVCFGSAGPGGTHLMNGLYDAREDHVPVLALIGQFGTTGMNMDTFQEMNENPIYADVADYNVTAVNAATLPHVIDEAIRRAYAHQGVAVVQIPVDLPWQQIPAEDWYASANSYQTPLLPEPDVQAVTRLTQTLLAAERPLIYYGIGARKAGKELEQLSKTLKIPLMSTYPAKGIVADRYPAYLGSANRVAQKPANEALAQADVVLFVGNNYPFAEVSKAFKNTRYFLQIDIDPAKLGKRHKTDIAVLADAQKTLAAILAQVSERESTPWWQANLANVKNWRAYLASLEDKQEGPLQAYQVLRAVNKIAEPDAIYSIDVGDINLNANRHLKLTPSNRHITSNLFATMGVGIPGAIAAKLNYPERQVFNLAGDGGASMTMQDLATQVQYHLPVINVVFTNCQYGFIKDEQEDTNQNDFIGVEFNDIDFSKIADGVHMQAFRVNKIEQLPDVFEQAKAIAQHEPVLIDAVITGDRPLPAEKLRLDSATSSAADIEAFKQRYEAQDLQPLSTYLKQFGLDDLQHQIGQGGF
Procedure: Pyruvate oxidase from Lactobacillus plantarum was a gift from Boehringer Mannheim and was assayed according to the manufacturer's instructions at 25° C. by measuring the rate of 4-quinonimine production from H2 O2, 3,5-dichlorophenolsulfonic acid and 4-aminoantipyrine in the presence of horseradish peroxidase, at 546 nm, using a Cobas-Bio (Roche Diagnostics, Somerville, N.J.) automated centrifugal analyzer. The assay reaction mixture (total vol. 0.25 mL) contained: 40 mM sodium pyruvate; 50 mM potassium phosphate buffer, pH 6.5 with 10% (v/v) glycerol; 6.8 mM 3,5-dichlorophenolsulfonic acid; 0.03% of 4-aminoantipyrine; and 5u/mL of horseradish peroxidase. The reaction was initiated by adding POX.

[3] = PDC, catalytic site, read-out: Ki,c

Row | SMILES | inhibition / inactivation of PDC (in words) [1] | saturation by inhibitor ([1]; PDC) | Ki [1, 3] | kinact ([1]; PDC, read-out: ki (converted)) | kinact/KI ([1]; read-out: kc/Ki,c, PDC) | inhibition / inactivation of POX (in words) [2] | saturation by inhibitor ([2]; POX) | also measured
1 | C#CC(=O)C(=O)O [2-oxo-3-butynoic acid, 2-Oxo-3-butynoic acid] | irreversibly inactivates | no | 2110 µM | 0.00141 s⁻¹ | 0.667 M⁻¹ s⁻¹ | irreversibly inactivates | yes | Ki ([1]; PDC, read-out: Ki): 1100 µM; kinact ([1]; PDC, read-out: first order rate constant of inactivation (ki) (converted)): 0.0009 s⁻¹; kinact/KI ([1]; read-out: ki/Ki, PDC): 0.817 M⁻¹ s⁻¹; Ki ([2]; POX, read-out: Ki,c): 951 µM; kinact/KI ([2]; POX): 4.7 M⁻¹ s⁻¹; kinact ([2]; POX, read-out: ki (converted)): 0.00447 s⁻¹
2 | CCCC#CC(=O)C(=O)O [2-oxo-3-heptynoic acid, 2-Oxo-3-heptynoic acid] | inhibit | yes | 447 µM | 0.01 s⁻¹ | 22.5 M⁻¹ s⁻¹ | inhibit | no | saturation by inhibitor ([1]; PDC (+50 mM pyruvamide)): yes; Ki ([1]; PDC (+50 mM pyruvamide), read-out: Ki,c): 59.7 µM; Ki ([1]; PDC (+50 mM pyruvamide), read-out: Ki,r): 382 µM; kinact ([1]; PDC (+50 mM pyruvamide), read-out: ki (converted)): 0.00523 s⁻¹; Ki ([1]; PDC, regulatory site, read-out: Ki,r): 921 µM; kinact/KI ([1]; read-out: kc/Ki,c, PDC (+50 mM pyruvamide)): 87.7 M⁻¹ s⁻¹; kinact/KI ([2]; POX, from linear portion at high inhibitor concentrations (d)): 0.32 M⁻¹ s⁻¹; kinact/KI ([2]; POX, from linear portion at low inhibitor concentrations (c)): 0.0615 M⁻¹ s⁻¹

From patent publication US6204220A, “Substituted 2-oxo-3-alkynoic acids and methods of use thereof” (Rutgers, The State University of New Jersey, priority 1999, dated 2001)
